The target in one assay is PTGER2 (EP2) (Homo sapiens, UniProt P43116). As to the kind of experiment: cell-based.
The target in the next assay is PTRGER4 (EP4) (Homo sapiens, UniProt P35408). Put plainly: cell-based.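 Also: assay plate preincubated 15 min at 37 °C, after which PGE2 was added at 20 nM final and incubation continued 120 min at 37 °C.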

These results are taken from patent US11712438B2, “Phenyl derivatives as PGE2 receptor modulators” (IDORSIA PHARMACEUTICALS LTD, priority 2017, dated 2023).

Chain of PTGER2 (EP2) (P43116 whole entry): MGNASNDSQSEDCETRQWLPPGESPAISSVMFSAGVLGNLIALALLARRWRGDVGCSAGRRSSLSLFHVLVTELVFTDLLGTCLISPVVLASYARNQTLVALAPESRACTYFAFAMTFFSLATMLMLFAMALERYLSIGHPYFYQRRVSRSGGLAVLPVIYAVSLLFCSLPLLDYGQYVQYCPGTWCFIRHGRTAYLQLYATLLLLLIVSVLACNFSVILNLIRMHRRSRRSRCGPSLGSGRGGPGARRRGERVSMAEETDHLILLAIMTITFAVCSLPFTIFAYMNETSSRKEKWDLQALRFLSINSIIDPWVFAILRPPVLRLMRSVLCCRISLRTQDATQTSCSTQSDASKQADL
Chain of PTRGER4 (EP4) (P35408 whole entry): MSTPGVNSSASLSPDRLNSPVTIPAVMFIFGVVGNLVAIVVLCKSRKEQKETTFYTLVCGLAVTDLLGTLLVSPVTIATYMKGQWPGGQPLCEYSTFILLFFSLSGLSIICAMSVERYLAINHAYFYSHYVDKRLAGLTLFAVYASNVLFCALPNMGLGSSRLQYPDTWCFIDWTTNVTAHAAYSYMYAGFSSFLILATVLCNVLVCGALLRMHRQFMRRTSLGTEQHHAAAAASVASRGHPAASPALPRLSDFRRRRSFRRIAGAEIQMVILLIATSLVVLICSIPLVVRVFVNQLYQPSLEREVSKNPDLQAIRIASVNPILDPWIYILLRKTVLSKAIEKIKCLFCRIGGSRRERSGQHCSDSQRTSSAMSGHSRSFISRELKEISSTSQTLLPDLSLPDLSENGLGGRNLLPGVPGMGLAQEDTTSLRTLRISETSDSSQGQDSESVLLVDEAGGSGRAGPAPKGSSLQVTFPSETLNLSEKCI

As to `COc1cc(C)c(C)cc1CCNc1cc(-c2ccc(C(=O)O)c(OC3CCC3)c2)ncn1` [Example 188, 2-Cyclobutoxy-4-{6-[2-(2-methoxy-4,5-dimethyl-phenyl)-ethylamino]-pyrimidin-4-yl}-benzoic acid], the half-inhibitory concentration (IC50) was determined as 179 nM against PTGER2 (EP2) and 117 nM on PTRGER4 (EP4).

On to `CCOc1cc(-c2cc(NCCc3ccc(OC(F)F)cc3OC)ncn2)ccc1C(=O)O` [Example 220, 4-{6-[2-(4-Difluoromethoxy-2-methoxy-phenyl)-ethylamino]-pyrimidin-4-yl}-2-ethoxy-benzoic acid], for which the IC50 against PTGER2 (EP2) was 401 nM; on PTRGER4 (EP4), 839 nM.

Turning to `CCOc1cc(-c2cc(NCCc3c(F)cc(Br)cc3F)ncn2)ccc1-c1noc(=S)[nH]1` [Example 290, 3-(4-{6-[2-(4-Bromo-2,6-difluoro-phenyl)-ethylamino]-pyrimidin-4-yl}-2-ethoxy-phenyl)-[1,2,4]oxadiazole-5(4H)-thione], the figures for the concentration for half-maximal inhibition (IC50) against PTGER2 (EP2) and on PTRGER4 (EP4) were 48 nM and 28 nM, respectively.

With `Fc1cc(Br)cc(F)c1CCNc1cc(-c2ccc3nccn3c2)ncn1` [Example 309, [2-(4-Bromo-2,6-difluoro-phenyl)-ethyl]-(6-imidazo[1,2-a]pyridin-6-yl-pyrimidin-4-yl)-amine], the results for the half-inhibitory concentration (IC50) against PTGER2 (EP2) and against PTRGER4 (EP4) were 352 nM and 875 nM, respectively.

Take `CCCc1cc(-c2cc(NCCc3cc(C)c(C)cc3OC)ncn2)ccc1CC(=O)O` [Example 192, (4-{6-[2-(2-Methoxy-4,5-dimethyl-phenyl)-ethylamino]-pyrimidin-4-yl}-2-propyl-phenyl)-acetic acid]: the IC50 on PTGER2 (EP2) was found to be 380 nM; against PTRGER4 (EP4), 193 nM.

For `CCOc1cc(-c2cc(NCCc3c(F)cc(OC)cc3F)ncn2)ccc1C(=O)O` [Example 228, 4-{6-[2-(2,6-Difluoro-4-methoxy-phenyl)-ethylamino]-pyrimidin-4-yl}-2-ethoxy-benzoic acid], the results for the IC50 against PTGER2 (EP2) and at PTRGER4 (EP4) were 502 nM and 777 nM, respectively.

Take `CCCc1cc(-c2cc(NCCc3cc(Cl)c(C(F)(F)F)cc3OC)ncn2)ccc1C(=O)O` [Example 197, 4-{6-[2-(5-Chloro-2-methoxy-4-trifluoromethyl-phenyl)-ethylamino]-pyrimidin-4-yl}-2-propyl-benzoic acid]: the 50% inhibitory concentration (IC50) on PTGER2 (EP2) worked out at 539 nM; on PTRGER4 (EP4) it was 163 nM.

With `CCOc1cc(-c2cc(NCCc3cc(Cl)c(C(F)(F)F)cc3OC)ncn2)ccc1C(=O)O` [Example 195, 4-{6-[2-(5-Chloro-2-methoxy-4-trifluoromethyl-phenyl)-ethylamino]-pyrimidin-4-yl}-2-ethoxy-benzoic acid], the IC50 against PTGER2 (EP2) is 837 nM; against PTRGER4 (EP4) it was 269 nM.

In the case of `CC(C)Oc1cc(-c2cc(NCCc3c(F)cc(Br)cc3F)ncn2)ccc1C(=O)O` [Example 251, 4-{6-[2-(4-Bromo-2,6-difluoro-phenyl)-ethylamino]-pyrimidin-4-yl}-2-isopropoxy-benzoic acid], the IC50 was determined as 254 nM at PTGER2 (EP2) and 831 nM on PTRGER4 (EP4).

Take `CCOC(=O)CCc1sc(-c2cc(NCCc3c(F)cc(Br)cc3F)ncn2)cc1OCC` [Example 247, 3-(5-{6-[2-(4-Bromo-2,6-difluoro-phenyl)-ethylamino]-pyrimidin-4-yl}-3-ethoxy-thiophen-2yl)-propionic acid ethyl ester]: the half-inhibitory concentration (IC50) on PTGER2 (EP2) is 799 nM; on PTRGER4 (EP4), 278 nM.

For `Fc1cc(Br)cc(F)c1CCNc1cc(-c2ccc3[nH]ccc3c2)ncn1` [Example 258, [2-(4-Bromo-2,6-difluoro-phenyl)-ethyl]-[6-(1H-indol-5yl)-pyrimidin-4-yl]amine], the half-inhibitory concentration (IC50) against PTGER2 (EP2) came to 77 nM; against PTRGER4 (EP4), 174 nM.

Take `CCOc1cc(-c2cc(NCCc3cc(C)c(C)cc3OC)ncn2)cc(F)c1CC(=O)O` [Example 193, (2-Ethoxy-6-fluoro-4-{6-[2-(2-methoxy-4,5-dimethyl-phenyl)-ethylamino]-pyrimidin-4-yl}-phenyl)-acetic acid]: the results for the IC50 against PTGER2 (EP2) and on PTRGER4 (EP4) were 797 nM and 159 nM, respectively.

In the case of `CCOc1cc(-c2cc(NCCc3ccc(OC(F)F)cc3OC)ncn2)sc1C(=O)O` [Example 224, 5-{6-[2-(4-Difluoromethoxy-2-methoxy-phenyl)-ethylamino]-pyrimidin-4-yl}-3-ethoxy-thiophene-2-carboxylic acid], the results for the half-inhibitory concentration (IC50) against PTGER2 (EP2) and at PTRGER4 (EP4) were 37 nM and 23 nM, respectively.

Consider `CCCc1cc(-c2cc(NCCc3c(F)cc(Br)cc3F)ncn2)ccc1C(=O)NCC` [Example 305, 4-{6-[2-(4-Bromo-2,6-difluoro-phenyl)-ethylamino]-pyrimidin-4-yl}-N-ethyl-2-propyl-benzamide], for which the IC50 on PTGER2 (EP2) was found to be 203 nM; at PTRGER4 (EP4), 628 nM.

In the case of `CCOc1cc(-c2cc(NCCc3c(F)cc(Br)cc3F)ncn2)ccc1NCC(=O)O` [Example 182, (4-{6-[2-(4-Bromo-2,6-difluoro-phenyl)-ethylamino]-pyrimidin-4-yl}-2-ethoxy-phenylamino)-acetic acid], the IC50 at PTGER2 (EP2) was 163 nM; at PTRGER4 (EP4), 208 nM.

On to `CCCc1cc(-c2cc(NCCc3ccc(OC(F)F)cc3OC)ncn2)ccc1C(=O)O` [Example 222, 4-{6-[2-(4-Difluoromethoxy-2-methoxy-phenyl)-ethylamino]-pyrimidin-4-yl}-2-propyl-benzoic acid], for which the results for the IC50 against PTGER2 (EP2) and on PTRGER4 (EP4) were 231 nM and 286 nM, respectively.

In the case of `CCCOc1cc(-c2cc(NCCc3cc(C)c(C)cc3OC)ncn2)ccc1CC(=O)O` [Example 194, (4-{6-[2-(2-Methoxy-4,5-dimethyl-phenyl)-ethylamino]-pyrimidin-4-yl}-2-propoxy-phenyl)-acetic acid], the IC50 against PTGER2 (EP2) is 548 nM; at PTRGER4 (EP4), 207 nM.

As to `COc1ccc(SC)cc1CCNc1cc(-c2ccc(C(=O)O)c(OC3CCC3)c2)ncn1` [Example 173, 2-Cyclobutoxy-4-{6-[2-(2-methoxy-5-methylsulfanyl-phenyl)-ethylamino]pyrimidin-4-yl}-benzoic acid], the IC50 on PTGER2 (EP2) stood at 107 nM; against PTRGER4 (EP4), 519 nM.

As to `CCOc1cc(-c2cc(NCCc3c(C)cc(C)cc3OC)ncn2)ccc1CC(=O)O` [Example 202, (2-Ethoxy-4-{6-[2-(2-methoxy-4,6-dimethyl-phenyl)-ethylamino]-pyrimidin-4-yl}-phenyl)-acetic acid], the 50% inhibitory concentration (IC50) was found to be 597 nM against PTGER2 (EP2) and 365 nM at PTRGER4 (EP4).

For `CCOc1cc(-c2cc(NCCc3c(F)cc(Br)cc3F)ncn2)ccc1C(=O)NC` [Example 298, 4-{6-[2-(4-Bromo-2,6-difluoro-phenyl)-ethylamino]-pyrimidin-4-yl}-2-ethoxy-N-methyl-benzamide], the IC50 stood at 128 nM on PTGER2 (EP2) and 301 nM against PTRGER4 (EP4).

Regarding `CCOc1cc(-c2cc(NCCc3c(F)cc(Br)cc3F)ncn2)ccc1C(=O)NCCOC` [Example 301, 4-{6-[2-(4-Bromo-2,6-difluoro-phenyl)-ethylamino]-pyrimidin-4-yl}-2-ethoxy-N-(2-methoxy-ethyl)-benzamide], the IC50 at PTGER2 (EP2) was found to be 118 nM; against PTRGER4 (EP4), 640 nM.

Turning to `CCc1cc(-c2cc(NCCc3c(F)cc(Br)cc3F)ncn2)cc(C)c1CC(=O)O` [Example 257, (4-{6-[2-(4-Bromo-2,6-difluoro-phenyl)-ethylamino]-pyrimidin-4-yl}-2-ethyl-6-methyl-phenyl)-acetic acid], the IC50 worked out at 212 nM against PTGER2 (EP2) and 239 nM against PTRGER4 (EP4).

With `CCOc1cc(-c2cc(NCCc3c(F)cccc3OC)ncn2)sc1C(=O)O` [Example 177, 3-Ethoxy-5-{6-[2-(2-fluoro-6-methoxy-phenyl)-ethylamino]-pyrimidin-4-yl}-thiophene-2-carboxylic acid], the IC50 at PTGER2 (EP2) stood at 126 nM; against PTRGER4 (EP4) it was 343 nM.

For the compound `CN1C(=O)NCc2ccc(-c3cc(NCCc4c(F)cc(Br)cc4F)ncn3)cc21` [Example 262, 7-{6-[2-(4-Bromo-2,6-difluoro-phenyl)-ethylamino]-pyrimidin-4-yl}-1-methyl-3,4-dihydro-1H-quinazolin-2-one], the figures for the 50% inhibitory concentration (IC50) against PTGER2 (EP2) and against PTRGER4 (EP4) were 88 nM and 149 nM, respectively.

Regarding `Fc1cc(Br)cc(F)c1CCNc1cc(-c2ccc3[nH]ncc3c2)ncn1` [Example 267, [2-(4-Bromo-2,6-difluoro-phenyl)-ethyl]-[6-(1H-indazol-5-yl)-pyrimidin-4-yl]amine], the concentration for half-maximal inhibition (IC50) against PTGER2 (EP2) is 70 nM; on PTRGER4 (EP4) it was 183 nM.

Regarding `Fc1cc(Br)cc(F)c1CCNc1cc(-c2ccc3cc[nH]c3c2)ncn1` [Example 170, [2-(4-Bromo-2,6-difluoro-phenyl)-ethyl]-[6-(1H-indol-6yl)-pyrimidin-4-yl]amine], the IC50 against PTGER2 (EP2) worked out at 424 nM; against PTRGER4 (EP4), 746 nM.

Consider `CCCc1cc(-c2cc(NCCc3c(F)cc(Br)cc3F)ncn2)ccc1C(=O)NCC(C)(C)O` [Example 308, 4-{6-[2-(4-Bromo-2,6-difluoro-phenyl)-ethylamino]-pyrimidin-4-yl}-N-(2-hydroxy-2-methyl-propyl)-2-propyl-benzamide], for which the half-maximal inhibitory concentration (IC50) is 156 nM on PTGER2 (EP2) and 164 nM against PTRGER4 (EP4).

For the compound `CCCc1cc(-c2cc(NCCc3c(F)cc(Br)cc3F)ncn2)ccc1C1(C(=O)O)CC1` [Example 172, 1-(4-{6-[2-(4-Bromo-2,6-difluoro-phenyl)-ethylamino]-pyrimidin-4-yl}-2-propyl-phenyl)-cyclopropanecarboxylic acid], the IC50 against PTGER2 (EP2) worked out at 440 nM; on PTRGER4 (EP4), 401 nM.

Take `Cc1cc(-c2cc(NCCc3c(F)cc(Br)cc3F)ncn2)cc(C)c1CC(=O)O` [Example 255, (4-{6-[2-(4-Bromo-2,6-difluoro-phenyl)-ethylamino]-pyrimidin-4-yl}-2,6-dimethyl-phenyl)-acetic acid]: the half-inhibitory concentration (IC50) against PTGER2 (EP2) stood at 344 nM; against PTRGER4 (EP4) it was 283 nM.

With `CCCc1cc(-c2cc(NCCc3c(F)cc(Br)cc3F)ncn2)ccc1C(N)=O` [Example 303, 4-{6-[2-(4-Bromo-2,6-difluoro-phenyl)-ethylamino]-pyrimidin-4-yl}-2-propyl-benzamide], the IC50 on PTGER2 (EP2) came to 44 nM; against PTRGER4 (EP4), 163 nM.

For the compound `CCCc1cc(-c2cc(NCCc3c(C)cc(C)cc3OC)ncn2)ccc1C(=O)O` [Example 201, 4-{6-[2-(2-Methoxy-4,6-dimethyl-phenyl)-ethylamino]-pyrimidin-4-yl}-2-propyl-benzoic acid], the IC50 on PTGER2 (EP2) is 140 nM; against PTRGER4 (EP4) it was 482 nM.

The IC50 is the point on the concentration scale where inhibition reaches its midpoint. A high value points to lower potency.
